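Interpolation was linear, between the two tested concentrations surrounding the appropriate level; five concentrations were tested over 48 hours in 96-well plates. GI50: concentration for 50% inhibition of growth. TGI: total growth inhibition.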

Holding throughout (assay): NCI tumour cell line growth inhibition, 48 h
The test system of assay [1] is PC-3 prostate.
For assay [2], the system named is UO-31 renal.
In assay [3] the test system is A549 NSCLC.
The test system of assay [4] is MALME-3M melanoma.
For assay [5], the system named is SW-620 colon.
The test system of assay [6] is ACHN renal.
Assay [7] relates to HCC-2998 colon.
Assay [8] has as its system SR leukemia.
Assay [9] deals with A498 renal.
Assay [10] has as its system RPMI-8226 leukemia.

In the case of `COC(=O)c1cn(CCCC(=O)O)nn1`, the TGI in assay [1], in assay [2], in assay [3], in assay [4], in [5] and in [6] was > 100 µM in each case. Besides, the TGI in assay [7] was > 100 µM.

Turning to `O=C(Nc1cccc2ccccc12)Oc1ccccc1C1CCCCC1`, the TGI in assay [8] is 57 µM; in assay [9] it was 31.5 µM; in assay [10], 81.9 µM; in assay [2], 34.6 µM; in assay [3], 44.1 µM; in assay [4], 35.1 µM. Further, the TGI worked out at 40 µM in [5] and 34.3 µM in assay [7].

Regarding `O=C(O)CCCl`, the TGI in assay [8] is > 5000 µM; in [10] it was > 5000 µM; in [2] it was > 5000 µM; in [3], > 5000 µM; in assay [4], 4970 µM; in assay [5] it was > 5000 µM. Moreover, in [6], the TGI is > 5000 µM.

In the case of `FC(F)(F)c1ccc(-c2nc(-c3nc4cc(Cl)c(Cl)cc4[nH]3)c3ccccn23)cc1`, the GI50 in [8] was > 100 µM; in [9], 4.58 µM; in assay [10], > 100 µM; in assay [4], 3.56 µM; in [5], > 100 µM; in assay [6] it was 3.9 µM. In addition, the GI50 in assay [7] is > 100 µM. The TGI in assay [8] is > 100 µM; in [9], 79.1 µM; in assay [10] it was > 100 µM; in assay [4] it was > 100 µM; in assay [5], > 100 µM; in [6] it was 28.5 µM. The TGI in [7] is > 100 µM.

In the case of `CCC(C)[C@H](NC(=O)[C@H](Cc1ccccc1)NC(=O)N(CC)c1ccccc1)C(=O)N[C@@H](CC(C)C)C(=O)OC` (some centres undefined), the TGI in [1] was > 100 µM; in assay [9], > 100 µM; in [10], 38 µM; in [2] it was 67.2 µM; in assay [3], > 100 µM; in assay [4], > 100 µM. In addition, the TGI in [5] was > 100 µM; in assay [6] it was 72.7 µM; in assay [7], > 100 µM.

Regarding `COc1c2cc([N+](=O)[O-])cc1CNC(=O)CN1CCOCCOCCN(CCOCCOCC1)CC(=O)NC2`, the TGI in assay [1], in assay [9], in assay [10], in assay [2], in assay [3] and in assay [4] was > 100 µM throughout. Also, the TGI in assay [5], in assay [6] and in [7] was > 100 µM each time.

Take `COc1cc2c(cc1OCCCN1CCN(CCCOc3cc4c(cc3OC)C(=O)N3CCC[C@H]3C=N4)CC1)C=CC(C)(C)O2`: the GI50 was 0.804 µM in assay [1]; 1.15 µM in assay [9]; 0.232 µM in assay [10]; 1.51 µM in assay [2]; 1.9 µM in [4]; 0.634 µM in assay [5]. For the same compound, the GI50 in assay [7] was 0.683 µM. Besides, the TGI was found to be 2.09 µM in [1]; 2.37 µM in [9]; 0.699 µM in assay [10]; 3.49 µM in [2]; 3.65 µM in [4]; 1.93 µM in assay [5]. This compound yielded a TGI in assay [7] of 2.07 µM.

Take `Cc1ccc(S(=O)(=O)c2scc(-c3ccccc3)c2C)cc1`: the TGI in [1], in assay [10], in assay [2], in assay [3], in assay [4] and in assay [5] was > 100 µM each time. The TGI in assay [6] and in [7] was > 100 µM in each case.

As to `CN(C)CC(/C(Cc1ccccc1)=N\NC(=O)C[n+]1ccccc1)c1ccccc1` (centres undefined), the TGI in assay [8], in assay [9], in assay [2], in assay [3], in assay [4] and in [6] was > 100 µM each time. Also, the TGI in assay [7] is > 100 µM.

For `O=C1C=CC2CCC1C2` (centres undefined), the TGI in [1], in [9], in assay [10], in assay [2], in assay [3] and in [4] was > 100 µM each time. For the same compound, the TGI is > 100 µM in assay [5], > 100 µM in assay [6] and 89.9 µM in [7].

`O=C(CSc1nnc(-c2ccc(N=Cc3ccc(Cl)cc3)cc2)o1)Nc1ccccc1Cl`: the TGI in assay [8], in assay [10], in assay [2], in assay [3], in assay [4] and in [5] was > 100 µM in each case. Moreover, the TGI in [6] was > 100 µM.

Consider `c1csc(-c2ccc(-c3ccc(-c4ccc(-c5cccs5)s4)s3)s2)c1`, for which the TGI in assay [8], in assay [9], in assay [10], in [2], in assay [5] and in assay [6] was > 100 µM each time. Further, the TGI in assay [7] was > 100 µM.

Turning to `O=C(Nc1c(O)[nH]c(=S)[nH]c1=O)c1ccccn1`, the TGI in assay [8], in assay [9], in assay [10], in [2], in [3] and in [4] was > 100 µM in each case. The TGI in assay [5] and in assay [6] was > 100 µM throughout.

With `Nc1nc(N)c2ncn(CC3CCC(CO)C3)c2n1` (centres undefined), the TGI in [1], in assay [9], in [10], in assay [2], in assay [3] and in assay [5] was > 100 µM in each case. Further, the TGI in assay [6] and in assay [7] was > 100 µM each time.

In the case of `Cc1c2cc[nH]c(C(F)(F)F)c2cc2c1nc1ccccc12`, the TGI in assay [9] is > 113 µM; in [10], > 78.9 µM; in [2], > 125 µM; in [3] it was > 125 µM; in [4], > 125 µM; in assay [5] it was > 125 µM. The TGI in assay [7] is > 125 µM.

Values taken from PubChem BioAssay (NCI).
